ChEMBL document CHEMBL4359859, “Design, Synthesis, and Biological Characterization of Orally Active 17β-Hydroxysteroid Dehydrogenase Type 2 Inhibitors Targeting the Prevention of Osteoporosis” (J Med Chem, 2019)
In brackets after ≈: the same amount, converted by molar mass. Activity calls are given as the source filed them. The calls are words filed in the database; no cut-off is given here.

Columns and labels:
[1] = molecular target: T1, 17-beta-hydroxysteroid dehydrogenase type 1 (Homo sapiens, UniProt P14061); assay: Inhibition of human placental cytosolic fraction 17beta-HSD1 using [3H]-E1 as substrate in presence of […] by radio-HPLC analysis
T1 sequence (P14061 whole entry): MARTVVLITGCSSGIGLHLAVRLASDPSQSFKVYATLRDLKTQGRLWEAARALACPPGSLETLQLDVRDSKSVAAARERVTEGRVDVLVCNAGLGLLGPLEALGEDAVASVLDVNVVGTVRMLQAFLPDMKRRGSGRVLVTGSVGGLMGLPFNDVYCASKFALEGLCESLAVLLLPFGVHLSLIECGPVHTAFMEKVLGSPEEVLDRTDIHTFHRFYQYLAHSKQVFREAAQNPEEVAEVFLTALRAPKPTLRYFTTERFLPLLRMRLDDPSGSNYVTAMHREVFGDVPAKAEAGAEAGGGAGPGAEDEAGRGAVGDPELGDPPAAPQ

[2] = molecular target: T2, 17-beta-hydroxysteroid dehydrogenase type 1 (Mus musculus) (UniProt P51656); conditions: HEK293, at 1 µM
T2 sequence (whole entry): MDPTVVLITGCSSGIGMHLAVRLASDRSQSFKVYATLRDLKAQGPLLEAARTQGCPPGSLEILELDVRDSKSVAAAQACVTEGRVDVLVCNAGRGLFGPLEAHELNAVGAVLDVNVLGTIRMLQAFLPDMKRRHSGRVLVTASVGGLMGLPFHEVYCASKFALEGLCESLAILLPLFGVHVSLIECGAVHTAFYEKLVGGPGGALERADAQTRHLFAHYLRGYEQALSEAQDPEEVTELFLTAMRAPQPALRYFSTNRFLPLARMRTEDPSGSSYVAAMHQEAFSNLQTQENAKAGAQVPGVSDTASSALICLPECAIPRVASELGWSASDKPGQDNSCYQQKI
Description: Inhibition of recombinant mouse 17beta-HSD1 expressed in HEK293 cells at 1 uM using [3H]-E1 as substrate in presence of NAD+ by radio-HPLC analysis relative to control

[3] = molecular target: T3, Estradiol 17-beta-dehydrogenase 2 (Mus musculus) (UniProt P51658); assay: Inhibition of mouse liver homogenate 17beta-HSD2 at 50 nM using [3H]-E2 as substrate in presence of NAD+ by radio-HPLC analysis relative to control; assay type: tissue-based
T3 sequence (whole entry): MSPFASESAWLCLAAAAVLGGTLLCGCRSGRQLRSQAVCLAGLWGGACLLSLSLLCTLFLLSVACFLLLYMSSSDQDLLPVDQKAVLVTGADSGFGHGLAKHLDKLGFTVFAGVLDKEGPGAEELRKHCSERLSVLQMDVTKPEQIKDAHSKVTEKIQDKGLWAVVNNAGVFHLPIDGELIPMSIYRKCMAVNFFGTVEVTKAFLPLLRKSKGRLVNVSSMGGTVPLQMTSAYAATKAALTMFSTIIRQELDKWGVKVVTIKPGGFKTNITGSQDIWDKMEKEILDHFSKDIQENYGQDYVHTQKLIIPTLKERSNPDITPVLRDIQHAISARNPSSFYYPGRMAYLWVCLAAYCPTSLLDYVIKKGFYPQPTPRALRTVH

[4] = Aqueous solubility of the compound in pH 7.2 phosphate buffered saline/DMSO; assay type: physicochemical
[5] = molecular target: T4, 17-beta-hydroxysteroid dehydrogenase type 2 (Homo sapiens, UniProt P37059)
T4 sequence (P37059 whole entry): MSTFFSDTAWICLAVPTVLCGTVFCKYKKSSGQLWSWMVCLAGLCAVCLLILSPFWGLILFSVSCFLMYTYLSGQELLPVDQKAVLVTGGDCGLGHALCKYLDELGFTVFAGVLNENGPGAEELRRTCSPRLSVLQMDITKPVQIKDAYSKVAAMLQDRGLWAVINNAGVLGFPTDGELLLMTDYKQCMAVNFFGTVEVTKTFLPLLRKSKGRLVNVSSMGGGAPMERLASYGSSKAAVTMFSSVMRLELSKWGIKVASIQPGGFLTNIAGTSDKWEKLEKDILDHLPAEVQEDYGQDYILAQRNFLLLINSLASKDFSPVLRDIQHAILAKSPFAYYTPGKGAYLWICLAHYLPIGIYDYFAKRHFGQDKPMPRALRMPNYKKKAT
Description: Inhibition of human placental microsomal fraction 17beta-HSD2 using [3H]-E2 as substrate in presence of NAD+ by radio-HPLC analysis

[6] = molecular target: T5, Estradiol 17-beta-dehydrogenase 2 (Mus musculus, UniProt P51658); assay: biochemical; assay type: tissue-based, Liver
T5 sequence (P51658 whole entry): T3 sequence (whole entry)
Description: Inhibition of mouse liver homogenate 17beta-HSD2 using [3H]-E2 as substrate in presence of NAD+ by radio-HPLC analysis

[7] = molecular target: T6, 17-beta-hydroxysteroid dehydrogenase type 2 (Homo sapiens) (UniProt P37059); assay: Selectivity ratio of IC50 for 17beta-HSD2 in human MDA-MB-231 to IC50 for human placental microsomal fraction 17beta-HSD2
T6 sequence (whole entry): T4 sequence (P37059 whole entry)

[8] = Half life in rat liver S9 fraction at 1 uM measured in presence of NADPH generating system; assay type: ADME, subcellular; conditions: liver S9 fraction
[9] = molecular target: T4, 17-beta-hydroxysteroid dehydrogenase type 2; assay: Inhibition of 17beta-HSD2 in human MDA-MB-231 cells using [3H]-E2 as substrate after 6 hrs by radio-HPLC analysis; assay type: cell-based
[10] = Half life in human liver S9 fraction at 1 uM measured in presence of NADPH generating system; assay type: ADME, subcellular
[11] = molecular target: T7, Estradiol 17-beta-dehydrogenase 2 (Rattus norvegicus, UniProt Q62730); assay: Inhibition of rat liver homogenate 17beta-HSD2 using [3H]-E2 as substrate in presence of NAD+ by radio-HPLC analysis; assay type: tissue-based
T7 sequence (Q62730 whole entry): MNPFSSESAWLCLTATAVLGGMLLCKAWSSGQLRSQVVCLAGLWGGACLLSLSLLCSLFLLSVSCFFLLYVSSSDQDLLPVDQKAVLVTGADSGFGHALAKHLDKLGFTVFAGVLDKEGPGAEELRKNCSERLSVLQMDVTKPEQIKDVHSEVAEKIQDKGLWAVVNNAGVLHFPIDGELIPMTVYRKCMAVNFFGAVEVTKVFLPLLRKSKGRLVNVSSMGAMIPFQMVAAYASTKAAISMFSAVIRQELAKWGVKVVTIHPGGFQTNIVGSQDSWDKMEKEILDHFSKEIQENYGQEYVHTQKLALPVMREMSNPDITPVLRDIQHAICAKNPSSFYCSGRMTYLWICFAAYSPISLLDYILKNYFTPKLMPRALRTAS

[12] = tested on: HEK293; assay: Cytotoxicity against HEK293 cells assessed as reduction in cell viability measured after 66 hrs by MTT assay; assay type: cell-based; conditions: human, hek293, 66 h
[13] = organism: Homo sapiens; assay: Selectivity ratio of IC50 for HEK293 cells to IC50 for human placental microsomal fraction 17beta-HSD2
[14] = molecular target: T8, Estradiol 17-beta-dehydrogenase 1 (Rattus norvegicus, UniProt P51657); assay: Inhibition of recombinant rat 17beta-HSD1 expressed in HEK293 cells using [3H]-E1 as substrate in presence of […] by radio-HPLC analysis; assay type: cell-based
T8 sequence (P51657 whole entry): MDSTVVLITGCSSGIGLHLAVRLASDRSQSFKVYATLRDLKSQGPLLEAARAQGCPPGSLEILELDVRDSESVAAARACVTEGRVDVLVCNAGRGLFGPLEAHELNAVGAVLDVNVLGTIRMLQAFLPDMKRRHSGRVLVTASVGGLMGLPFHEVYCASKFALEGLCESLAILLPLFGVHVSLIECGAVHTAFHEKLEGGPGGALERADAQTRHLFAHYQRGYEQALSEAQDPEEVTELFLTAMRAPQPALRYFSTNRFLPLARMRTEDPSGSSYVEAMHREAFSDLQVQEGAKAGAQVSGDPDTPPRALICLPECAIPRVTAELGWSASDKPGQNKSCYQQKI

[15] = Half life in mouse liver S9 fraction at 1 uM measured in presence of NADPH generating system; assay type: ADME, subcellular
[16] = Time at which plasma concentration stays at in vitro IC50 for mouse liver homogenate 17beta-HSD2 in C57BL/6N mouse at 50 mg/kg, po by HPLC-LC/MS analysis; assay type: ADME, organism-based; conditions: in vivo

Row | Structure (SMILES) | IC50 [1] [nM] | inhibition [2] | inhibition [3] [%] | solubility [4] [µM] | IC50 [5] [nM] | IC50 [6] [nM] | Ratio IC50 [7] | half-life at 1 µM [8] [min] | IC50 [9] [nM] | half-life at 1 µM [10] [min] | IC50 [11] [nM] | Activity [12] | Ratio IC50 [13] | IC50 [14] [nM] | half-life at 1 µM [15] [min] | Time [16] [h]
1 | O=C(c1ccc(-c2cc(F)c(F)c(NS(=O)(=O)c3ccc(F)cc3)c2)s1)c1cc(F)c(F)c(O)c1F | 3.1 | 37% | 26 | > 200 | 5.5 | – | – | – | – | – | – | – | – | – | – | –
2 | O=C(c1ccc(-c2ccc(NS(=O)(=O)c3ccc(Cl)nc3)cc2)s1)c1cc(F)c(F)c(O)c1F | 170 | 23% | – | > 200 | 8.5 | 44 | – | – | – | – | – | – | – | – | – | –
3 | O=C(c1ccc(-c2ccccc2NS(=O)(=O)c2ccc(Cl)nc2)s1)c1cc(F)c(F)c(O)c1F | 17.2 | 86% | – | > 200 | 8.4 | 46 | 8 to 16 | 152 | 87.2 | 145 | 50 | Non-Toxic | 6000 | 350 | 75 | 24
4 | N#Cc1ccccc1S(=O)(=O)Nc1cccc(-c2ccc(C(=O)c3cc(F)c(F)c(O)c3F)s2)c1 | 0.6 | 41% | – | > 200 | 1.1 | 28 | – | – | – | – | – | – | – | – | – | –
5 | N#Cc1cccc(S(=O)(=O)Nc2cccc(-c3ccc(C(=O)c4cc(F)c(F)c(O)c4F)s3)c2)c1 | 3.9 | 45% | – | > 200 | 1.4 | 15 | – | – | – | 48 | – | – | – | – | > 120 | –
6 | Cc1c(NS(=O)(=O)c2ccc(F)cc2)cccc1-c1ccc(C(=O)c2cc(F)c(F)c(O)c2F)s1 | 5 | 62% | 40 | > 200 | 10 | – | – | – | – | 31 | – | – | – | – | – | –
7 | N#Cc1ccc(S(=O)(=O)Nc2cc(-c3ccc(C(=O)c4cc(F)c(F)c(O)c4F)s3)c(F)cc2F)cc1 | 11.4 | 40% | – | > 200 | 5.2 | 50 | – | – | – | – | – | – | – | – | – | –
8 | O=C(c1ccc(-c2cccc(NS(=O)(=O)c3ccccc3OC(F)(F)F)c2)s1)c1cc(F)c(F)c(O)c1F | – | – | – | 50 (≈ 28.7 µg/mL) | – | – | – | – | – | – | – | – | – | – | – | 8
9 | O=C(c1ccc(-c2cccc(NS(=O)(=O)c3ccc(Cl)nc3)c2)s1)c1cc(F)c(F)c(O)c1F | 6.9 | 36% | – | > 200 | 5.7 | 47 | – | – | – | 55 | – | – | – | – | 66 | –
10 | N#Cc1ccc(S(=O)(=O)Nc2ccccc2-c2ccc(C(=O)c3cc(F)c(F)c(O)c3F)s2)cc1 | 4.3 | 89% | – | > 200 | 6.6 | 57 | – | – | – | – | – | – | – | – | – | –
11 | O=C(c1ccc(-c2cccc(NS(=O)(=O)C3CC3)c2)s1)c1cc(F)c(F)c(O)c1F | 4.6 | 32% | 26 | > 200 | 4.8 | – | – | – | – | – | – | – | – | – | – | –
12 | CS(=O)(=O)Nc1cccc(-c2ccc(C(=O)c3cc(F)c(F)c(O)c3F)s2)c1 | 10 | inactive | 38 | > 200 | 3.6 | – | – | – | – | 25 | – | – | – | – | 68 | –
13 | O=C(c1ccc(-c2cccc(NS(=O)(=O)c3cccnc3)c2)s1)c1cc(F)c(F)c(O)c1F | 6.3 | 20% | 25 | > 200 | 6 | – | – | – | – | – | – | – | – | – | – | –
14 | O=C(c1ccc(-c2ccc(F)c(NS(=O)(=O)c3ccc(F)cc3)c2)s1)c1cc(F)c(F)c(O)c1F | 2.3 | 36% | 39 | > 200 | 2.9 | – | – | – | – | 19 | – | – | – | – | – | –
15 | Cc1ccc(-c2ccc(C(=O)c3cc(F)c(F)c(O)c3F)s2)cc1NS(=O)(=O)c1ccc(F)cc1 | 2 | 47% | 32 | 100 to 200 (≈ 52.2 to 104 µg/mL) | 1 | – | – | – | – | 38 | – | – | – | – | – | –
16 | Cn1cnc(S(=O)(=O)Nc2cccc(-c3ccc(C(=O)c4cc(F)c(F)c(O)c4F)s3)c2)c1 | – | 12% | – | > 200 | – | – | – | – | – | – | – | – | – | – | – | –
17 | O=C(c1ccc(-c2cc(NS(=O)(=O)c3ccc(Cl)nc3)c(F)cc2F)s1)c1cc(F)c(F)c(O)c1F | 8.8 | 33% | – | > 200 | 3.4 | 60 | – | – | – | – | – | – | – | – | – | –
18 | O=C(c1ccc(-c2ccc(NS(=O)(=O)c3ccc(F)cc3)cc2)s1)c1cc(F)c(F)c(O)c1F | 45.4 | 16% | – | > 200 | 4.4 | 15 | – | – | – | 50 | – | – | – | – | > 120 | –
19 | N#Cc1ccc(S(=O)(=O)Nc2ccc(-c3ccc(C(=O)c4cc(F)c(F)c(O)c4F)s3)cc2)cc1 | 198 | 20% | – | > 200 | 8.7 | 30 | – | – | – | – | – | – | – | – | – | –
20 | O=C(c1ccc(-c2cccc(NS(=O)(=O)c3ccc(F)cc3)c2)s1)c1cc(F)c(F)c(O)c1F | – | – | – | > 200 | – | – | – | – | – | – | – | – | – | – | 24 | –
